Test results from article PMC10600881 (ACS Omega, 2023).
Converted amounts (≈) assume the structure as drawn. Like-named read-outs stand apart in the source and are kept apart here.

Assays:
[1] = test system: S. aureus (ATCC 25923); assay: Broth microdilution assay, MIC; type: cell-based; conditions: Staphylococcus aureus, ATCC25923, read-out: Minimum Inhibitory Concentration
[2] = test system: P. aeruginosa (ATCC 29853); assay: Broth microdilution assay, MIC/MBC; type: cell-based; conditions: for ratio (MBC/MIC): P. aeruginosa (ATCC 29853); for MBC / MIC: Pseudomonas aeruginosa; for bactericidal or bacteriostatic effect: MBC/MIC ≤ 4 = bactericidal
[3] = test system: B. subtilis (ATCC 9372); assay: Broth microdilution assay, MIC; type: cell-based; conditions: Bacillus subtilis, ATCC9372, read-out: Minimum Inhibitory Concentration
[4] = target: T1, M. tuberculosis DHFR enzyme (Mycobacterium tuberculosis, UniProt P9WNX1); assay: biochemical
T1 sequence (P9WNX1 1-161): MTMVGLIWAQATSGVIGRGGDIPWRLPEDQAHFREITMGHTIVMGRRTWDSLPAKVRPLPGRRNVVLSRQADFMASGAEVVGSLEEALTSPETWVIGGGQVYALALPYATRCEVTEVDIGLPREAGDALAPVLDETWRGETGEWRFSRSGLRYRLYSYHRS

[5] = test system: E. coli (ATCC25922); assay: Broth microdilution assay, MIC; type: cell-based; conditions: Escherichia coli, ATCC25922, read-out: Minimum Inhibitory Concentration
[6] = test system: C. albicans (ATCC 10231); assay: Broth microdilution assay, antifungal MIC/MFC; type: cell-based, Candida albicans; conditions: for ratio (MFC/MIC): C. albicans (ATCC 10231); for MFC / MIC: Candida albicans; for fungicidal or fungistatic behavior: C. albicans, MFC/MIC > 4 = fungistatic
[7] = test system: M. tuberculosis (RCMB 010126); assay: Microplate alamar blue assay; type: cell-based, Mycobacterium tuberculosis; conditions: MABA
[8] = ATCC29853, read-out: Minimum Inhibitory Concentration
[9] = ATCC10231, read-out: Minimum Inhibitory Concentration
[10] = Mycobacterium tuberculosis, RCMB010126, sensitive Mycobacterium tuberculosis (RCMB 010126)
[11] = sensitive Mycobacterium tuberculosis (RCMB 010126)

Compound | MIC [1] | ratio (MBC/MIC) [2] | MBC ([2]; ATCC29853) | MIC ([2]; ATCC29853) | MIC [2, 8] | MIC [3] | IC50 [4] | MIC [5] | ratio (MFC/MIC) [6] | MFC ([6]; ATCC10231) | MIC ([6]; ATCC10231) | MIC [6, 9] | bactericidal or bacteriostatic effect ([2]; P. aeruginosa) | MIC [7, 10] | MIC [7, 11] | fungicidal or fungistatic behavior [6] | fold more efficient than amoxicillin ([2]; P. aeruginosa, from MICs)
COc1ccc(C=C2SC(N3N=C(c4cccs4)CC3c3cc(OC)ccc3OC)=NC2=O)cc1 (centres unmarked) [8b, 5-(4-Methoxybenzylidene)-2-(4,5-dihydro-5-(2,5-dimethoxyphenyl)-3-(thiophen-2-yl)pyrazol-1-yl)thiazol-4(5H)-one] | 62.5 µg/mL (≈ 124 µM) | 8 | 500 µg/mL (≈ 989 µM) | 62.2 µg/mL (≈ 123 µM) | 62.2 µg/mL (≈ 123 µM) | 62.5 µg/mL (≈ 124 µM) | 18.5 ± 0.61 µM | > 500 µg/mL | 4 | 125 µg/mL (≈ 247 µM) | 31.2 µg/mL (≈ 61.8 µM) | 31.2 µg/mL (≈ 61.8 µM) | – | – | – | – | –
COc1ccc(OC)c(C2CC(c3cccs3)=NN2C2=NC(=O)CCS2)c1 (centres unmarked) [10b, 5,6-Dihydro-2-(4,5-dihydro-5-(2,5-dimethoxyphenyl)-3-(thiophen-2-yl)pyrazol-1-yl)-1,3-thiazin-4-one] | 250 µg/mL (≈ 623 µM) | 4 | 250 µg/mL (≈ 623 µM) | 62.2 µg/mL (≈ 155 µM) | 62.2 µg/mL (≈ 155 µM) | 62.5 µg/mL (≈ 156 µM) | 10.6 ± 0.31 µM | 125 µg/mL (≈ 311 µM) | 2 | 31.2 µg/mL (≈ 77.8 µM) | 15.6 µg/mL (≈ 38.9 µM) | 15.6 µg/mL (≈ 38.9 µM) | bactericidal | – | – | – | –
COc1ccc(OC)c(C2CC(c3cccs3)=NN2C2=NC(=O)CS2)c1 (centres unmarked) [6b, 2-(4,5-Dihydro-5-(2,5-dimethoxyphenyl)-3-(thiophen-2-yl)pyrazol-1-yl)thiazol-4(5H)-one] | 62.5 µg/mL (≈ 161 µM) | 4 | 15.6 µg/mL (≈ 40.3 µM) | 3.9 µg/mL (≈ 10.1 µM) | 3.9 µg/mL (≈ 10.1 µM) | 125 µg/mL (≈ 323 µM) | 5.7 ± 0.28 µM | 125 µg/mL (≈ 323 µM) | 4 | 15.6 µg/mL (≈ 40.3 µM) | 3.9 µg/mL (≈ 10.1 µM) | 3.9 µg/mL (≈ 10.1 µM) | bactericidal | 0.12 to 1.95 µg/mL (≈ 0.31 to 5.03 µM) | 0.12 µg/mL (≈ 0.31 µM) | – | –
COc1ccc(OC)c(C2CC(c3cccs3)=NN2C2=NC(=O)C(=C3C(=O)Nc4ccccc43)S2)c1 (centres unmarked) [9b, 3-(2-(4,5-Dihydro-5-(2,5-dimethoxyphenyl)-3-(thiophen-2-yl)pyrazol-1-yl)-4-oxothiazol-5(4H)-ylidene)indolin-2-one] | 62.5 µg/mL (≈ 121 µM) | 2 | 125 µg/mL (≈ 242 µM) | 62.2 µg/mL (≈ 120 µM) | 62.2 µg/mL (≈ 120 µM) | 125 µg/mL (≈ 242 µM) | 22.7 ± 0.55 µM | 125 µg/mL (≈ 242 µM) | 16 | 500 µg/mL (≈ 968 µM) | 31.2 µg/mL (≈ 60.5 µM) | 31.2 µg/mL (≈ 60.5 µM) | bactericidal | – | – | fungistatic | –
Brc1ccc(-c2csc(N3N=C(c4cccs4)CC3c3cccs3)n2)cc1 (centres unmarked) [4c, 1-(4-(4-Bromophenyl)thiazol-2-yl)-4,5-dihydro-3,5-di(thiophen-2-yl)-1H-pyrazole] | 62.5 µg/mL (≈ 132 µM) | 4 | 125 µg/mL (≈ 265 µM) | 31.2 µg/mL (≈ 66.1 µM) | 31.2 µg/mL (≈ 66.1 µM) | 125 µg/mL (≈ 265 µM) | 4.21 ± 0.13 µM | > 500 µg/mL | 8 | 31.2 µg/mL (≈ 66.1 µM) | 3.9 µg/mL (≈ 8.25 µM) | 3.9 µg/mL (≈ 8.25 µM) | bactericidal | 0.12 to 1.95 µg/mL (≈ 0.254 to 4.13 µM) | 0.12 µg/mL (≈ 0.254 µM) | fungistatic | ~16 fold
